Test results reported in patent US20220146526A1, “METHOD FOR EVALUATING SAMPLE, ANALYSIS METHOD, METHOD FOR DETECTING DEGRADED SAMPLE, MARKER FOR DETECTING DEGRADED BLOOD PLASMA SAMPLE, AND MARKER FOR DETECTING DEGRADED SERUM SAMPLE” (SHIMADZU CORPORATION, priority 2019, published 2022).

Columns and labels:
Format in all cases: physicochemical, human
[1] = LC/MS of blood plasma sample: time from blood collection to centrifugation (Table D); settings: for Increase or decrease: detection intensity; for Increase or decrease / Rate of increase or decrease: blood collection to centrifugation; for Rate of increase or decrease (second value, decrease) / Rate of increase or decrease (first value, increase): different from individual to individual, relative to 1 at 15 minutes, collection to centrifugation; for Rate of increase or decrease (second value, decrease): individuals with decrease; for Rate of increase or decrease (first value, increase): individuals with increase; for Rate of increase or decrease: detection intensity relative to 1 at 15 minutes
In short: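 Healthy-subject blood (5 mL, EDTA) cooled and held at 4 °C before centrifugation (4 °C, 3000 rpm, 15 min), with plasma then frozen. LC/MS on Discovery HS F5-3 column at 40 °C, 0.1% formic acid water/acetonitrile, 0.25 mL/min, electrospray, MRM; intensities relative to 15 min collection-to-centrifugation set as 1.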

[2] = LC/MS of blood plasma sample: number of times of freezing and thawing (Table F); settings: for Rate of increase or decrease: detection intensity relative to 1 at 2 times; for Increase or decrease: detection intensity
Method: At room temperature, 5 mL of blood from a healthy subject was taken into a blood-collecting vessel containing EDTA, and the blood-collecting vessel was inverted for mixing, then cooled, and allowed to stand at 4° C. Here, in order to investigate how the detection intensity of molecules contained in the sample was affected in a case where the time to cooling was set to 5 minutes or more as compared to that in a case where the time to cooling was set to 1 minute or less, preparations were performed under both the former condition and the latter condition. After standing, the blood sample was subjected to centrifugation under a condition of 4° C., 3000 rpm, and 15 minutes. […] After centrifugation, the blood-collecting vessel was left to stand at room temperature for 30 minutes, and the blood plasma was isolated during this 30 minutes. The obtained blood plasma sample was frozen and stored. Here, in order to investigate how the detection intensity of molecules contained in the sample was affected in cases where freezing and thawing was performed 4 times, 6 times, and 10 times after freezing as compared to that in a case where freezing and thawing was performed 2 times after freezing, freezing and thawing was performed under the respective conditions of 2, 4, 6, and 10 times.
(§1) Frozen blood plasma samples and serum samples were subjected to GC/MS or LC/MS. In GC/MS, the blood plasma samples and serum samples were subjected to methoxymation and trimethylsilylation and then introduced to GC-MS.
(§2) Analysis column: Discovery HS F5-3 (inner diameter of 2.1 mm, length of 150 mm, film thickness of 3 μm) (Sigma-Aldrich)
(§3) Column temperature: 40° C.
(§4) (A) 0.1% formic acid (dissolved in water)
(§5) (B) 0.1% formic acid (dissolved in acetonitrile)
(§6) Flow velocity: 0.25 mL/min
(§7) Ionization method: electrospray
(§8) Temperature: • Desolvation Line (DL) temperature: 250° C. • Heat block temperature: 400° C. • Interface temperature: 300° C.
(§9) Gas flow rate: • Nebulizer gas flow rate: 3.0 L/min • Drying gas flow rate: 10.0 L/min • Heating gas flow rate: 10.0 L/min
(§10) Mode: multiple reaction monitoring (MRM)
The rate of increase or decrease in Table F is the value of detection intensity relative to 1 that is the detection intensity in a case where the number of times of freezing and thawing is set to 2 times.

[3] = LC/MS of serum sample: time from blood collection to centrifugation (Table J); settings: for Rate of increase or decrease: detection intensity relative to 1 at 15 minutes; for Increase or decrease / Time when compound is affected: serum sample, LC/MS; for Increase or decrease: detection intensity vs 15 minutes from blood collection to centrifugation; for Time when compound is affected: time from blood collection to centrifugation, detection intensity changed by 30% or more vs 15 minutes
Method: After standing, the blood sample was subjected to centrifugation under a condition of room temperature, 3500 rpm, and 5 minutes. […] After centrifugation, the blood-collecting vessel was left to stand at room temperature, and the serum was isolated during this time. Here, in order to investigate how the detection intensity of molecules contained in the sample was affected in cases where the time during which the blood-collecting vessel was left at room temperature was set to 1 hour and 6 hours as compared to that in a case where the time was set to 30 minutes, preparations were performed under the respective conditions of 30 minutes, 1 hour, and 6 hours. The obtained serum sample was frozen and stored. Here, in order to investigate how the detection intensity of molecules contained in the sample was affected in cases where freezing and thawing was performed 4 times, 6 times, and 10 times after freezing as compared to that in a case where freezing and thawing was performed 2 times after freezing, freezing and thawing was performed under the respective conditions of 2, 4, 6, and 10 times.
as §1, §2, §3, §4, §5, §6, §7, §8, §9, §10
The rate of increase or decrease in Table J is the value of detection intensity relative to 1 that is the detection intensity in a case where the time from blood collection to centrifugation is set to 15 minutes.

[4] = LC/MS of serum sample: number of times of freezing and thawing (Table M); design: key to Rate of increase or decrease: detection intensity relative to 1 at 2 freeze-thaw cycles; settings: for Number of times when compound is affected / Increase or decrease: serum sample, LC/MS; for Number of times when compound is affected: detection intensity changed by 30% or more vs 2 times of freezing and thawing; for Increase or decrease: detection intensity vs 2 times of freezing and thawing
In short: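 Serum was isolated at room temperature after centrifugation at room temperature, 3500 rpm, 5 minutes, then frozen and freeze-thawed 2, 4, 6 or 10 times. LC/MS used a Discovery HS F5-3 column at 40° C with formic acid water/acetonitrile, electrospray MRM. Intensity is relative to 2 freeze-thaw cycles.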

[5] = GC/MS of serum sample: number of times of freezing and thawing (Table I); design: key to Rate of increase or decrease / Rate of increase or decrease (first value, increase): detection intensity relative to 2 freeze-thaw cycles = 1; settings: serum, GC/MS; for Rate of increase or decrease: detection intensity relative to 1 at 2 times; for Increase or decrease: detection intensity
In short: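 Serum was isolated after centrifugation at room temperature (3500 rpm, 5 min), frozen, and put through 2, 4, 6 or 10 freeze–thaw cycles. Samples were methoxymated and trimethylsilylated, then run by electron-ionization GC/MS in MRM mode on a BPX5 column (60 to 330 °C). Detection intensity is given relative to the 2-cycle sample, set as 1.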

[6] = GC/MS of serum sample: time from blood collection to centrifugation (Table G); settings: blood collection to centrifugation
In short: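 Blood was held for varying times before centrifugation (room temperature, 3500 rpm, 5 min); serum was frozen, then methoxymated and trimethylsilylated for GC/MS with electron ionization in MRM mode. Values are detection intensities relative to the 15-minute collection-to-centrifugation condition, set as 1.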

[7] = GC/MS of serum sample: time from centrifugation to isolation (Table H); design: key to Rate of increase or decrease / Rate of increase or decrease (first value, increase): detection intensity relative to 1 at 30 min centrifugation-to-isolation
In short: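 Blood was centrifuged at room temperature, 3500 rpm, 5 min, and the vessel left at room temperature for 30 min, 1 h or 6 h before serum isolation. Serum was methoxymated, trimethylsilylated and analysed by GC/MS with electron ionization in MRM mode; intensities expressed relative to the 30-min condition (=1).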

[8] = freezing and thawing 10 times vs 2 times
[9] = after 12 hours from blood collection to centrifugation
[10] = 6 times of freezing and thawing, detection intensity relative to 1 at 2 times
[11] = freezing and thawing 4 times vs 2 times
[12] = after 6 hours from blood collection to centrifugation

CC[C@H](C)[C@H](N)C(=O)O [Isoleucine]
Increase or decrease ([1]; after 12 hours vs 15 minutes): Different from individual | Rate of increase or decrease (second value, decrease) ([1]; after 12 hours): 0.65 | Rate of increase or decrease (first value, increase) ([1]; after 12 hours): 1.31 | Rate of increase or decrease ([2]; freezing and thawing 10 times): 1.44 | Increase or decrease [2, 8]: Increase | Rate of increase or decrease [3, 9]: 1.34 | Increase or decrease [3]: Increase | Time when compound is affected [3]: After 12 hours | Rate of increase or decrease ([4]; 6 times of freezing and thawing, relative to 1 at 2 times, different from individual to individual, first value (increase)): 1.33 | Rate of increase or decrease ([4]; 6 times of freezing and thawing, relative to 1 at 2 times, different from individual to individual, second value (decrease)): 0.66 | Number of times when compound is affected [4]: 6 times | Increase or decrease [4]: Different from individual

NCC(=O)O [Glycine]
Increase or decrease [2, 8]: Increase | Rate of increase or decrease [3, 9]: 1.50 | Increase or decrease [3]: Increase | Time when compound is affected [3]: After 12 hours | Rate of increase or decrease [4, 10]: 0.69 | Number of times when compound is affected [4]: 6 times | Increase or decrease [4]: Decrease

N[C@@H](CCC(=O)O)C(=O)O [Glutamic acid]
Rate of increase or decrease ([2]; freezing and thawing 10 times): 5.21 | Increase or decrease [2, 8]: Increase | Rate of increase or decrease ([3]; after 4 hours from blood collection to centrifugation): 3.09 | Increase or decrease [3]: Increase | Time when compound is affected [3]: After 4 hours | Rate of increase or decrease ([4]; 10 times of freezing and thawing, detection intensity relative to 1 at 2 times): 0.63 | Number of times when compound is affected [4]: 10 times | Increase or decrease [4]: Decrease

N=C(N)NCCC[C@H](N)C(=O)O [Arginine]
Rate of increase or decrease ([1]; after 6 hours): 0.69 | Increase or decrease ([1]; after 6 hours vs 15 minutes): Decrease | Rate of increase or decrease ([2]; freezing and thawing 4 times): 1.34 | Increase or decrease [2, 11]: Increase | Rate of increase or decrease ([5]; freezing and thawing 10 times): 1.51 | Increase or decrease [5, 8]: Increase | Rate of increase or decrease [3, 12]: 0.54 | Increase or decrease [3]: Decrease | Time when compound is affected [3]: After 6 hours | Rate of increase or decrease [4, 10]: 0.64 | Number of times when compound is affected [4]: 6 times | Increase or decrease [4]: Decrease

N[C@@H](Cc1c[nH]cn1)C(=O)O [Histidine]
Rate of increase or decrease ([2]; freezing and thawing 10 times): 1.36 | Increase or decrease [2, 8]: Increase | Rate of increase or decrease [3, 9]: 1.46 | Increase or decrease [3]: Increase | Time when compound is affected [3]: After 12 hours | Rate of increase or decrease [4, 10]: 0.61 | Number of times when compound is affected [4]: 6 times | Increase or decrease [4]: Decrease

O=C(O)[C@@H]1CC(O)CN1 (stereo partly shown) [4-Hydroxyproline]
Increase or decrease ([1]; after 12 hours vs 15 minutes): Different from individual | Rate of increase or decrease (second value, decrease) ([1]; after 12 hours): 0.69 | Rate of increase or decrease (first value, increase) ([1]; after 12 hours): 1.33 | Rate of increase or decrease ([2]; freezing and thawing 10 times): 1.34 | Increase or decrease [2, 8]: Increase | Rate of increase or decrease ([6]; detection intensity relative to 1 at 15 minutes, after 12 hours): 1.44 | Increase or decrease ([6]; detection intensity, after 12 hours vs 15 minutes): Increase | Rate of increase or decrease ([7]; detection intensity relative to 1 at 30 minutes, after 1 hour): 1.33 | Increase or decrease ([7]; detection intensity, after 1 hour vs 30 minutes): Increase | Rate of increase or decrease ([5]; freezing and thawing 4 times): 1.40 | Increase or decrease [5, 11]: Increase | Rate of increase or decrease [4, 10]: 0.66 | Number of times when compound is affected [4]: 6 times | Increase or decrease [4]: Decrease

O=C(O)CCC(=O)O [Succinic acid]
Rate of increase or decrease ([1]; after 4 hours): 0.50 | Rate of increase or decrease ([1]; after 6 hours): 0.61 | Increase or decrease ([1]; after 4 hours vs 15 minutes): Decrease | Increase or decrease ([1]; after 6 hours vs 15 minutes): Decrease | Rate of increase or decrease ([2]; freezing and thawing 4 times): 1.46 | Increase or decrease [2, 11]: Increase | Rate of increase or decrease [3, 12]: 1.57 | Increase or decrease [3]: Increase | Time when compound is affected [3]: After 6 hours | Rate of increase or decrease ([4]; 4 times of freezing and thawing, detection intensity relative to 1 at 2 times): 1.47 | Number of times when compound is affected [4]: 4 times | Increase or decrease [4]: Increase

CC(C)C[C@H](N)C(=O)O [Leucine]
Rate of increase or decrease ([1]; after 12 hours): 0.69 | Increase or decrease ([1]; after 12 hours vs 15 minutes): Decrease | Rate of increase or decrease ([2]; freezing and thawing 10 times): 1.35 | Increase or decrease [2, 8]: Increase | Rate of increase or decrease [3, 9]: 1.35 | Increase or decrease [3]: Increase | Time when compound is affected [3]: After 12 hours | Rate of increase or decrease [4, 10]: 0.66 | Number of times when compound is affected [4]: 6 times | Increase or decrease [4]: Decrease

NC(=O)C[C@H](N)C(=O)O [Asparagine]
Rate of increase or decrease ([2]; freezing and thawing 10 times): 1.38 | Increase or decrease [2, 8]: Increase | Rate of increase or decrease [3, 9]: 1.40 | Increase or decrease [3]: Increase | Time when compound is affected [3]: After 12 hours | Rate of increase or decrease [4, 10]: 0.66 | Number of times when compound is affected [4]: 6 times | Increase or decrease [4]: Decrease
